Results as given in patent publication US9943528B2 (MAPREG, priority 2016, dated 2018).

Assays:
Noradrenergic α2 = assay: CNS receptor binding assay, α2; settings: MAP4343 10 μM; [3H] RX 821002; rat cerebral cortex
Source text: (§1) MAP4343 has been screened for in vitro affinity to 80 different CNS neurotransmitters receptors using various validated binding assays.

[1] = test system: 80 different CNS neurotransmitters receptors; assay: Screen for in vitro affinity to 80 different CNS neurotransmitters receptors; settings: 80 CNS neurotransmitters receptors, validated binding assays
Source text: as §1

Wistar Kyoto (WKY) rats [2] = assay: Open-field arena (OFA) in WKY rats, acute treatment; assay type: in vivo, rat; settings: MAP4343 10 mg/kg s.c., fluoxetine 10 mg/kg i.p., ketamine 30 mg/kg i.p.
Description: (§2) After a 6-day period of acclimatization, all experimental groups received daily successive subcutaneous (250 μl per rat) and intraperitoneal (1 ml/kg) injections. WI rats received injection of vehicle (sesame oil+saline) while WKY rats were randomly assigned to […] experimental groups, as follow: KWY rats receiving only vehicle (sesame oil+saline) and WKY rats treated with MAP4343 (10 mg/kg, s.c.; rats received in parallel i.p. injections of saline), fluoxetine (10 mg/kg i.p., rats received in parallel s.c. injections of sesame oil) or ketamine (30 mg/kg, i.p.; rats received in parallel s.c. injections of sesame oil) (see FIG. 3).
(§3) After, a 6-day period of acclimatization, the acute phase of treatment started for 4 days during behavioral tests were performed (FIG. 3). All animals were injected 1 h 30 before the starting of behavioral test.
The animals were individually placed in the open field arena (OFA) (70×100×70 cm), with a central square (35×50 cm), located in a 50 lux illuminated room and videotaped during 3 min using a computerized system (VideoTrack V2.5, ViewPoint, Lyon, France).
OFA allows firstly the evaluation of total locomotor activity (LMA) thereby measuring the total distance travelled in the arena (in cm). Secondly, measurements of the activity in the center of the arena like (i) the number of entries in the center of arena and (ii) the total time spent in the center of arena (in sec) provide cues of anxiety-like behavior (Prut and Belzung, 2003). All these behavioral parameters were instantaneously measured automatically with the VideoTrack V2.5 software from the videos.

Wistar Kyoto (WKY) rats [3] = assay: Elevated-plus maze (EPM) in WKY rats, acute treatment; assay type: in vivo, rat; settings: MAP4343 10 mg/kg s.c., fluoxetine 10 mg/kg, ketamine 30 mg/kg i.p., FIG. 5D
Description: as §2, §3
We used the elevated-plus maze (EPM) as an assay of anxiety-related behavior in rodents (Walf and Frye, 2007). […] The time spent in the open versus closed arms was blindly measured by two independent experimenters from the recorded video, and the open arm-index was calculated as follow: time in the open arms (sec)/[time in open arms (sec)+time in closed arms (sec)].

Wistar Kyoto (WKY) rats [4] = assay: Forced swimming test (FST) in WKY rats; assay type: in vivo, rat; settings: FIG. 6B
Description: After a 6-day period of acclimatization, all experimental groups received daily successive subcutaneous (250 μl per rat) and intraperitoneal (1 ml/kg) injections. WI rats received injection of vehicle (sesame oil+saline) while WKY rats were randomly assigned to three experimental groups, as follow: KWY rats receiving only vehicle ([…]; rats received in parallel i.p. injections of saline), fluoxetine (10 mg/kg i.p., rats received in parallel s.c. injections of sesame oil) or ketamine (30 mg/kg, i.p.; rats received in parallel s.c. injections of sesame oil) (see FIG. 3).
as §3
Rats were submitted to the forced swimming test (FST), according the procedure initially described by (Detke et al., 1995) and slightly modified by (Bianchi et al., 2002). Briefly, rats were individually placed into a Plexiglas cylinder (40 cm height, 20 cm diameter) containing 25 cm of water at 25±1° C., under 50 lux illumination. […] The pre-test and test sessions were recorded using a video camera placed above the cylinder for subsequent behavioral analysis. The immobility time (in sec) was blindly measured by two independent experimenters from recorded videos. […]

[5] = test system: tree shrews exposed to chronic psychosocial stress; settings: 4-week daily administration; cited from earlier work
PC12 cells = settings: cited from earlier work

CO[C@H]1CC[C@@]2(C)C(=CC[C@H]3[C@@H]4CC[C@H](C(C)=O)[C@@]4(C)CC[C@@H]32)C1 [MAP4343, 3β-methoxy-pregna-5-ene-20-one]
% Inhibition of control specific binding (Noradrenergic α2): 7% | in vitro affinity for the tested receptors [1]: no significant affinity for any tested receptor | locomotor activity (total distance travelled in the open-field arena), change vs WKY receiving vehicle (Wistar Kyoto (WKY) rats [2]; 3 min, FIG. 5A): did not modify significantly the locomotor activity | number of entries in the central square of OFA, change vs WKY receiving only vehicle (Wistar Kyoto (WKY) rats [2]; FIG. 5B): +289% | time spent in the center of open-field vs WKY receiving vehicle (Wistar Kyoto (WKY) rats [2]; FIG. 5C): did not modify the low time spent in central square of arena | open-arm (OA) index in EPM, change vs WKY receiving vehicle alone (Wistar Kyoto (WKY) rats [3]): 165% | immobility time in FST, dose-ranging effect (Wistar Kyoto (WKY) rats [4]; MAP4343 1, 5, 10 and 15 mg/kg): dose-dependent decrease of immobility time | immobility time in FST, change vs WKY receiving vehicle alone (Wistar Kyoto (WKY) rats [4]; dose-ranging, MAP4343 15 mg/kg): −25% | hormone hypersecretion, hypothermia and sleep disturbances [5]: prevent hormone hypersecretion, hypothermia and sleep disturbances | stress-triggered avoidance behavior [5]: abolish stress-triggered avoidance behavior | neurite extension (PC12 cells): enhance neurite extension
